The values below come from EPA's ToxValDB 9.5 (doi:10.2903/j.efsa.2009.299r).

Data set [1] deals with Rattus norvegicus. As to conditions: for LD50: acute, mortality.
The subject of data set [2] is Folsomia candida. As to conditions: chronic/long-term; duration: 28 days.
Data set [3] deals with Colinus virginianus. As to conditions: for LC50: diet.
Data set [4] has as its system Oryctolagus sp.
Data set [5] concerns Daphnia magna.
Data set [6] deals with Mus musculus. To be noted: chronic; duration: 78 weeks; oral; diet; histopathology: neoplastic.
For data set [7], the system named is Oncorhynchus mykiss. To be noted: acute; duration: 96 hours; mortality.
For data set [8], the system named is Bibionidae. To be noted: chronic/long-term; duration: 28 days; other.
Data set [9] deals with Apis mellifera. As to conditions: acute, mortality.
Data set [10] deals with Tagia sp.
Data set [11] concerns Pimephales promelas. As to conditions: chronic/long-term; duration: 33 days; growth.
Data set [12] deals with Canidae. As to conditions: chronic; duration: 2 years; oral; Dog Other; body weight.

≈ marks a conversion by molar mass, not a printed value.

For `O=C(O)c1ncc(C(F)(F)F)cc1Cl` [3-Chloro-5-(trifluoromethyl)pyridine-2-carboxylic acid], the LD50 in data set [1] (oral) was 5000 mg/kg-day.

As to `O=C(NCc1ncc(C(F)(F)F)cc1Cl)c1c(Cl)cccc1Cl` [Fluopicolide], the NOEC stood at 31.2 mg/kg in data set [2]; 88.9 mg/kg-day in data set [3] (reproduction developmental); 0.37 mg/L in data set [5] (chronic/long-term, duration: 21 days, reproduction); 49 mg/kg in [8]; 62.5 mg/kg in data set [10] (chronic/long-term, duration: 28 days, growth); 0.155 mg/L in data set [11]. Also, the LC50 in data set [3] (acute, oral, mortality) is over 1740 mg/kg-day; in [5] (acute, duration: 48 hours, mortality), over 1.8 µg/mL; in data set [7], 0.36 µg/mL (≈ 0.939 µM); in [10] (acute, duration: 14 days, mortality), over 500 mg/kg. The LD50 was over 2250 mg/kg-day in data set [3] (acute, oral, mortality); over 5000 mg/kg-day in data set [1] (oral); over 100 µg/piece in data set [9] (dermal); over 241 µg/piece in data set [9] (oral, unspecified). For the same compound, the NOAEL (as a rule, the highest tested level that showed no adverse finding) in [4] (developmental, development) came out at 20 mg/kg-day; in data set [6], 7.9 mg/kg-day; in data set [1] (chronic, duration: 2 years, histopathology: nonneoplastic), 8.4 mg/kg-day; in data set [1] (short-term, duration: 28 days, oral, body weight), 17.7 mg/kg-day; in data set [1] (subchronic, duration: 90 days, oral, organ weight) it was 7.4 mg/kg-day. This compound also had an NOEL in data set [4] (developmental, development) of 20 mg/kg-day.

Consider `NC(=O)c1c(Cl)cccc1Cl` [2,6-Dichlorobenzamide], for which the LC50 in data set [3] (acute, oral, mortality) was found to be 1170 mg/kg-day. Besides, the NOAEL in data set [4] (reproduction developmental, body weight) is 30 mg/kg-day; in [1] (chronic, duration: 2 years, oral, histopathology: nonneoplastic), 5.7 mg/kg-day; in data set [12], 4.5 mg/kg-day. For the same compound, the LD50 in [1] (oral, F) is 500 mg/kg-day; in [1] (oral, M), 2000 mg/kg-day.

For the compound `CS(=O)c1cc(C(F)(F)F)cnc1C(=O)O` (centres undefined), the LD50 in [1] (oral) is over 5000 mg/kg-day.

Consider `O=C(O)c1ncc(C(F)(F)F)cc1S(=O)(=O)O` [3-Sulfo-5-trifluoromethyl pyridine-2-carboxylic acid], for which the LD50 in data set [1] (oral) was over 5000 mg/kg-day.
